Experimental data taken from patent US20250066348A1, “SMALL MOLECULE INHIBITORS OF UBIQUITIN SPECIFIC PROTEASE 1 (USP1) AND USES THEREOF” (INSILICO MEDICINE IP LIMITED, priority 2021, published 2025).

Key:
MDA-MB-436 cells = assay: MDA-MB-436 breast cancer cell proliferation assay (CellTiter-Glo); assay type: cell-based; conditions: Homo sapiens, 168 h, 7 days
Protocol: MDA-MB-436 cells were grown in Leibovitz's L-15 medium with 10 μg/ml insulin, 16 μg/ml glutathione, 10% FBS. Cells were passaged at subconfluence after trypsinization and maintained in incubators at 37° C. in a humidified atmosphere with 5% CO2.
Cell proliferation was determined using CellTiter-Glo® Luminescent Cell Viability Assay (Promega, #G7573). MDA-MB-436 cells were seeded in 384-well plates and allowed to attach for 24 h. Compounds were added into 384-well plate by ECHO, and incubated at 37 C° in a humidified atmosphere with 5% CO2. After 7 days, CellTiter-Glo was added into 384 well plates, contents were mixed on an orbital shaker at […] for 2 min before centrifuging the plate for 2 min at 1000 rpm. After incubation at RT for 30 min, luminescence was read on envision.

[1] = target: T1, Human recombinant USP1/UAF1 (Homo sapiens, UniProt O94782); assay: Enzymatic assay, USP1/UAF1 with Ubiquitin Rhodamine 110; assay type: biochemical; conditions: 2 nM USP1/UAF1, 500 nM Ubiquitin Rhodamine 110, HEPES buffer pH 8.0, 15 minutes preincubation at RT
T1 construct: purchased R&D E-568-050; host or cells: baculovirus infected Sf21 cells
Protocol: Human recombinant USP1/UAF1 expressed in baculovirus infected Sf21 cells were used (R&D, E-568-050). Test compound and/or vehicle was incubated with 2 nM of USP1/UAF1 in modified HEPES buffer pH 8.0 for 15 minutes at RT. The reaction was initiated by addition of 500 nM of Ubiquitin Rhodamine 110 (R&D, U-555-050) for kinetic reading. Slope change of fluorescence intensity was read spectrofluorimetrically at 485 nm/535 nm. Dose response of test compounds or reference compound ML-323 was analyzed by nonlinear regression of GraphPad prism software.

T1 sequence (O94782 whole entry): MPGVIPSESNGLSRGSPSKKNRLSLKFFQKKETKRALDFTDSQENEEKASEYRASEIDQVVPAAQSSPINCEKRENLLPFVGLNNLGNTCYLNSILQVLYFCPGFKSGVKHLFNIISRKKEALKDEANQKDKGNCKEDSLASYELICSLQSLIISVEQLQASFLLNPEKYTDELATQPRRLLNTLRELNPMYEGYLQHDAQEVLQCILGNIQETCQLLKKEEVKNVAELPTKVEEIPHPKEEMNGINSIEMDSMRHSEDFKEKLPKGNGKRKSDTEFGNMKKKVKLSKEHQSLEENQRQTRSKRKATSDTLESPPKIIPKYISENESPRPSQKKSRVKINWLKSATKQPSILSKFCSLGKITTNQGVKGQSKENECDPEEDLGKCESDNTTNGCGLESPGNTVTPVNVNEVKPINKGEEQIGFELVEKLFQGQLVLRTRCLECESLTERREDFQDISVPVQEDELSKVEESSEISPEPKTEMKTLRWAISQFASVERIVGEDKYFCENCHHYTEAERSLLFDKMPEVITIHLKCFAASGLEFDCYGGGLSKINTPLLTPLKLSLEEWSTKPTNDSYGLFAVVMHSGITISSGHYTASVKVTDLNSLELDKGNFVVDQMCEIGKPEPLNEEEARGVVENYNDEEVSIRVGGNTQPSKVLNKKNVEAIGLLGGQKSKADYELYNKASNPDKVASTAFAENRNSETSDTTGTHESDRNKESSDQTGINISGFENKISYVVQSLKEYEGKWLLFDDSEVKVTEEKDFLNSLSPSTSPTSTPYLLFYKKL
T1 sequence (Q8TAF3 whole entry partner): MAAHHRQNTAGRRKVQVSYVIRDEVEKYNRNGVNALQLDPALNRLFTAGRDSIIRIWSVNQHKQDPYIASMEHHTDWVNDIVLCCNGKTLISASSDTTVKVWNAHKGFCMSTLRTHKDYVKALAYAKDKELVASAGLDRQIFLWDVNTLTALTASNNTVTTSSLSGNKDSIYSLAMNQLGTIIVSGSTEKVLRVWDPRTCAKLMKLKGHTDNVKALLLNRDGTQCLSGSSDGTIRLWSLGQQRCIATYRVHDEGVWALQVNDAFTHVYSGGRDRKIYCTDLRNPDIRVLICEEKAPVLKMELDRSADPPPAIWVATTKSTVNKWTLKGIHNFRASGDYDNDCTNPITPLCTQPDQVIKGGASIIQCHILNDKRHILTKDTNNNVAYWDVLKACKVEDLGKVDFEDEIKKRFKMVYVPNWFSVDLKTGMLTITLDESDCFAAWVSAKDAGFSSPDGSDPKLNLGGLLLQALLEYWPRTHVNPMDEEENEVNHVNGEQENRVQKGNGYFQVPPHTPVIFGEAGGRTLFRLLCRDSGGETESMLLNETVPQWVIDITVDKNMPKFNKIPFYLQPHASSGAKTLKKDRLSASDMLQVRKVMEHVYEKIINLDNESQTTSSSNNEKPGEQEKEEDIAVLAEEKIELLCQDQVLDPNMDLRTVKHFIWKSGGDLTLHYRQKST

| SMILES | IC50 (MDA-MB-436 cells) | IC50 [1] |
| --- | --- | --- |
| COc1ncnc(C2CC2)c1-c1cc2c(cn1)cnn2Cc1ccc(-n2nc(C(F)(F)F)cc2C)cc1 [Example 1, 6-(4-cyclopropyl-6-methoxypyrimidin-5-yl)-1-(4-(5-methyl-3-(trifluoromethyl)-1H-pyrazol-1-yl)benzyl)-1H-pyrazolo[4,3-c]pyridine] | 0.05 to 1 µM | < 0.05 µM |
| COc1ncnc(C2CC2)c1-c1cn2c(Cc3ccc(-n4nc(C(F)(F)F)cc4C)cc3)ncc2cn1 [Example 2, 6-(4-cyclopropyl-6-methoxypyrimidin-5-yl)-3-(4-(5-methyl-3-(trifluoromethyl)-1H-pyrazol-1-yl)benzyl) imidazo[1,5-a]pyrazine] | 0.05 to 1 µM | 0.05 to 1 µM |
| COc1ncnc(C2CC2)c1-c1cn2c(Cc3ccc(-n4nc(C(F)(F)F)cc4C)cc3)nnc2cn1 [Example 5, 6-(4-cyclopropyl-6-methoxypyrimidin-5-yl)-3-(4-(5-methyl-3-(trifluoromethyl)-1H-pyrazol-1-yl)benzyl)-[1,2,4]triazolo[4,3-a]pyrazine] | > 10 µM | 1 to 10 µM |
| COc1ncnc(C2CC2)c1-c1ncc2c(=O)n(C)n(Cc3ccc(-n4nc(C(F)(F)F)cc4C)cc3)c2n1 [Example 7, 6-(4-cyclopropyl-6-methoxypyrimidin-5-yl)-2-methyl-1-(4-(5-methyl-3-(trifluoromethyl)-1H-pyrazol-1-yl)benzyl)-1,2-dihydro-3H-pyrazolo[3,4-d]pyrimidin-3-one] | 0.05 to 1 µM | 0.05 to 1 µM |
| COc1ncnc(C2CC2)c1-c1ncc2oc(=O)n(Cc3ccc(-n4nc(C(F)(F)F)cc4C)cc3)c2n1 [Example 8, 5-(4-cyclopropyl-6-methoxypyrimidin-5-yl)-3-(4-(5-methyl-3-(trifluoromethyl)-1H-pyrazol-1-yl)benzyl) oxazolo[4,5-d]pyrimidin-2 (3H)-one] | 0.05 to 1 µM | 0.05 to 1 µM |

Now from value to molecule:

| IC50 (MDA-MB-436 cells) | IC50 [1] | SMILES |
| --- | --- | --- |
| 1 to 10 µM | 1 to 10 µM | COc1ncnc(C2CC2)c1-c1cnc2cnn(Cc3ccc(-n4nc(C(F)(F)F)cc4C)cc3)c2n1 [Example 3, 6-(4-cyclopropyl-6-methoxypyrimidin-5-yl)-1-(4-(5-methyl-3-(trifluoromethyl)-1H-pyrazol-1-yl)benzyl)-1H-pyrazolo[3,4-b]pyrazine] |
|  | 1 to 10 µM | COc1ncnc(C2CC2)c1-c1cc2c(cnn2Cc2ccc(-n3nc(C(F)(F)F)cc3C)cc2)nn1 [Example 4, 6-(4-cyclopropyl-6-methoxypyrimidin-5-yl)-1-(4-(5-methyl-3-(trifluoromethyl)-1H-pyrazol-1-yl)benzyl)-1H-pyrazolo[4,3-c]pyridazine] |
|  | > 10 µM | COc1ncnc(C2CC2)c1-c1cnc2cnc(Cc3ccc(-n4nc(C(F)(F)F)cc4C)cc3)n2c1 [Example 6, 3-(4-cyclopropyl-6-methoxypyrimidin-5-yl)-6-(4-(5-methyl-3-(trifluoromethyl)-1H-pyrazol-1-yl)benzyl)imidazo[1,5-a]pyrimidine] |
| 0.05 to 1 µM | 0.05 to 1 µM | COc1ncnc(C2CC2)c1-c1ncc2[nH]c(=S)n(Cc3ccc(-n4nc(C(F)(F)F)cc4C)cc3)c2n1 [Example 9, 2-(4-cyclopropyl-6-methoxypyrimidin-5-yl)-9-(4-(5-methyl-3-(trifluoromethyl)-1H-pyrazol-1-yl)benzyl)-7,9-dihydro-8H-purine-8-thione] |
| < 0.05 µM | < 0.05 µM | COc1ncnc(C2CC2)c1-c1ncc2cnn(CC34C5C6C3C3C4C5C63c3nc(C(F)(F)F)cn3C)c2n1 (stereo not drawn) [Example 10, 6-(4-cyclopropyl-6-methoxypyrimidin-5-yl)-1-((4-(1-methyl-4-(trifluoromethyl)-1H-imidazol-2-yl)cuban-1-yl)methyl)-1H-pyrazolo[3,4-d]pyrimidine] |
| < 0.05 µM | < 0.05 µM | COc1ncnc(C2CC2)c1-c1ncc2cnn(CC34C5C6C3C3C4C5C63c3nc(C(F)(F)F)cn3C(C)C)c2n1 (stereo not drawn) [Example 11, 6-(4-cyclopropyl-6-methoxypyrimidin-5-yl)-1-((4-(1-isopropyl-4-(trifluoromethyl)-1H-imidazol-2-yl)cuban-1-yl)methyl)-1H-pyrazolo[3,4-d]pyrimidine] |
|  | 0.05 to 1 µM | COc1ncnc(C2CC2)c1-c1cc2c(cn1)cnn2Cc1ccc(-n2nc(C(F)(F)F)cc2C)nc1 [Example 12, 6-(4-cyclopropyl-6-methoxypyrimidin-5-yl)-1-((6-(5-methyl-3-(trifluoromethyl)-1H-pyrazol-1-yl)pyridin-3-yl)methyl)-1H-pyrazolo[4,3-c]pyridine] |
